The record followed here is PMC11988912, “Sensitization Potential of the Major Soybean Allergen Gly m 4 and Its Cross-Reactivity with the Birch Pollen Allergen Bet v 1” (International Journal of Molecular Sciences, 2025).

This assay addresses T1, Gly m 4 (Glycine max, UniProt P26987).
T1 construct: gene PR-10; recombinant allergen, full length; made in E. coli
T1 sequence (P26987 1-158): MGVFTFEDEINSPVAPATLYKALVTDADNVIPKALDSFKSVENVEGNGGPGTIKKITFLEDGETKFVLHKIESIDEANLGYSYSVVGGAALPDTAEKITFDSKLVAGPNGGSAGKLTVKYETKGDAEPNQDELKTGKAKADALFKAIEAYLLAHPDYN
Description: TNS fluorescence displacement. It is filed as binding. As to conditions: 4 uM ligand, 4 uM TNS, 4 uM Gly m 4; 10 mM phosphate buffer pH 7.4, 25 C; residual fluorescence of the Gly m 4-TNS complex.
As for `C[C@H](CCC(=O)O)[C@H]1CC[C@H]2[C@@H]3CC[C@@H]4C[C@H](O)CC[C@]4(C)[C@H]3C[C@H](O)[C@]12C` [DCA, deoxycholic acid], the “% of the control fluorescence” value was determined as 71%.

Turning to `C[C@H](CCC(=O)O)[C@H]1CC[C@H]2[C@@H]3[C@H](O)C[C@@H]4C[C@H](O)CC[C@]4(C)[C@H]3CC[C@]12C` [CDCA, chenodeoxycholic acid], the “% of the control fluorescence” value is on record as 53%.

As to `CC(C)CCC[C@@H](C)[C@H]1CC[C@H]2[C@@H]3CC=C4C[C@@H](O)CC[C@]4(C)[C@H]3CC[C@]12C` [CHOL, cholesterol], the “% of the control fluorescence” value was 83%.

For the compound `C[C@H](CCC(=O)O)[C@H]1CC[C@H]2[C@@H]3[C@H](O)C[C@@H]4C[C@H](O)CC[C@]4(C)[C@H]3C[C@H](O)[C@]12C` [CA, cholic acid], the “% of the control fluorescence” value is listed as 88%.

Turning to `C[C@H](CCC(=O)O)[C@H]1CC[C@H]2[C@@H]3CC[C@@H]4C[C@H](O)CC[C@]4(C)[C@H]3CC[C@]12C` [LCA, lithocholic acid], the “% of the control fluorescence” value turned out to be 10%.
